From PubChem BioAssay AID1259333 (Broad Institute, 2017) come the findings set out here.

Calls of active or inactive are those of the source. No rule for the calls is given here; tested in parental BL2 cells.

The first experiment concerns cytotoxicity, CellTiter-Glo ATP luminescence. As to the kind of experiment: cell cytotoxicity, dose response, cytotoxicity control, CellTiter-Glo (AID 1259333).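 As to activity change, negative = cytotoxicity: 0% = vehicle neutral controls and -100% = reference inhibitor positive controls.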
Details: not given
In general terms: In ATP-based viability assays light output follows the ATP content of the culture.
In general, AC50 refers to the concentration at which the activity in the assay is half-maximal. For the compound `CC(C)NC(=O)N1CC(=O)N2[C@H](CO)[C@@H](c3ccc(/C=C/c4ccccc4)cc3)[C@H]2C1`, the AC50 is > 20 µM (inactive). Still for that read-out and setting: next, `CCN(CC)C(=O)c1ccc(NC(=O)Nc2ccccc2F)cc1`: 3.45 µM; `Cc1ccc(-c2cc(C(=O)N3CC(C)OC(C)C3)c3ccccc3n2)o1` (stereo not drawn): > 20 µM (inactive); `O=C(COC(=O)c1ccccc1C(=O)c1ccc(Cl)c([N+](=O)[O-])c1)NC1CC1`: 2.45 µM.

System in a further experiment: not listed separately
Described as above. To be noted: cytotoxicity, CellTiter-Glo ATP luminescence; at 3.5 µM (top of the series).
For `C[C@@H]1CCCCO[C@@H](CN(C)C(=O)C2CCCCC2)[C@@H](C)CN([C@H](C)CO)C(=O)c2cc(NS(=O)(=O)c3ccccc3)ccc2O1`, the activity change, negative = cytotoxicity is 22.5% (inactive).

As to `Cc1ccccc1NC(=O)c1nc(S(C)(=O)=O)ncc1Cl`, the activity change, negative = cytotoxicity is 64.5% (inactive).

Staying with this experiment, now noted: cytotoxicity, CellTiter-Glo ATP luminescence; at 10 µM (top of the series).
As for `CC1CC(C)C(=O)C(C(CC2CC(=O)NC(=O)C2)OC(=O)CC(=O)c2ccccc2)C1` (stereo not drawn), the activity change, negative = cytotoxicity was 11.5% (inactive). `C=C1C(=O)OC2C=C(CO)CCC=C(CO)CC(OC(=O)C(C)C)C12` (stereo not drawn): the activity change, negative = cytotoxicity was 38.2% (inactive). On the same count and under the same terms, as for `Cc1ccc(S(=O)(=O)CCC(=O)N(CCCN2CCOCC2)c2nc3ccccc3s2)cc1`, the figure is 29.5% (inactive); as for `C[C@H](CO)N1C[C@H](C)[C@H](CN(C)Cc2ccc(Oc3ccccc3)cc2)OCc2ccccc2-c2ccccc2C1=O`, 15.4% (inactive); as for `Cc1nc(C)c(C(=O)Nc2ncc([N+](=O)[O-])s2)o1`, 29.6% (inactive). Turning to `Cc1noc(C)c1S(=O)(=O)Nc1ccc2c(c1)C(=O)N([C@H](C)CO)C[C@@H](C)[C@H](CN(C)C(=O)Nc1cccc3ccccc13)OCCCC[C@@H](C)O2`, the activity change, negative = cytotoxicity was 33.4% (inactive). Take `CC1=CC(=O)c2ccccc2C1=O`: the activity change, negative = cytotoxicity is 36.2% (inactive). Still for that read-out and setting: next, `COc1ccc(S(=O)(=O)N(C)C[C@H]2Oc3ccc(NC(=O)Nc4ccc(C(F)(F)F)cc4)cc3C(=O)N([C@@H](C)CO)C[C@@H]2C)cc1`: 33.2% (inactive). The same measure, in the same setting: as for `Cc1ccccc1-c1ccc2c(c1)O[C@@H](CN(C)C(=O)Nc1ccc(C(F)(F)F)cc1)[C@@H](C)CN([C@@H](C)CO)S2(=O)=O`, the figure is 16.7% (inactive). On to `Oc1ccc(Cc2ccccc2)c2cccnc12`, for which the activity change, negative = cytotoxicity was 41.6% (inactive). Same read-out and setting: next, `c1ccc(-c2nnc(-c3ccccn3)nn2)nc1`: 22.8% (inactive); `CN(C)c1ccc(NC(=O)c2cnsn2)cc1`: 17.7% (inactive). Same read-out and setting: next, `CCCNC(=O)N1[C@H](C#N)[C@H](c2ccc(C#Cc3cccc(F)c3)cc2)[C@H]1CO`: 16.9% (inactive). Same read-out and setting: as for `CC(=O)O[C@@H]1C[C@@]2(C)[C@H](c3ccoc3)C[C@H]3O[C@]32[C@]2(C)C(=O)C(=O)C3C(C)(C)C(=O)C=C[C@]3(C)C12` (stereo partly drawn), the figure is 188% (inactive); as for `Cc1cc(C)c2c(c1)SC1=NC(c3ccccc3)(C(F)(F)F)NC(=O)N12` (stereo not drawn), 30.7% (inactive). `O=C1C(=NO)CCc2ccccc21`: the activity change, negative = cytotoxicity is 115% (inactive). On the same count and under the same terms, as for `NS(=O)(=O)c1nn2cc(-c3ccccc3)nc2s1`, the figure is 65.7% (inactive); as for `CCN1C(=O)C(CC(=O)Nc2ccc(F)cc2)N(Cc2ccco2)C1=S` (stereo not drawn), 18% (inactive); as for `COc1cccc(S(=O)(=O)N(C)C[C@@H]2OCc3ccccc3-c3c(n(C)c4ccccc34)C(=O)N([C@H](C)CO)C[C@H]2C)c1`, 9.22% (inactive). The same measure, in the same setting: as for `O=C(c1nnsc1S(=O)(=O)c1ccc(Cl)cc1)N1CCOCC1`, the figure is 40.8% (inactive); as for `Nc1nc(=O)c2ccccc2s1`, 19.7% (inactive).

Still in this experiment, the particulars now being: cytotoxicity, CellTiter-Glo ATP luminescence; at 11 µM (top of the series).
For the compound `N#C[C@@H]1[C@@H](c2ccccc2-c2ccc(F)cc2)[C@H](CO)N1C(=O)NC1CCCCC1`, the activity change, negative = cytotoxicity is 19.3% (inactive).
